“Also recorded” adds a separate entry of the source. Ends that are not written are not given here. Peptide text beside a SMILES is read from it. * marks the point of attachment. Cbz = O=C(OCc1ccccc1)*; CH2F = FC*
Legend:
placenta [1] = test: Effect of placental targeting peptide conjugates on fetal development in pregnant mice; type: in vivo, mouse; conditions: for effect on pregnancy: FITC conjugated, lower dosages (450 μg total); for effect on fetal development: protein and phage conjugated, higher dosages (800 to 1000 μg protein or 4.5×10^10 phage)
Excerpt: The CARAC peptide (SEQ ID NO:46), an adipose targeting peptide (FE, TREVHRS, SEQ ID NO:47) or fd-tet phage were used as non-placental targeting controls.

APA (SK-RC-49/APA cells) [2] = target: T1, APA (SK-RC-49/APA cells) (Homo sapiens, UniProt Q07075); test: Cell panning of CX3CX3CX3C phage library on SK-RC-49/APA cells (insert frequency); type: cell-based; conditions: share of 18 randomly selected phage inserts, round 2
T1 construct: The renal carcinoma cell line SK-RC-49 was transfected with an expression vector encoding full-length APA cDNA; expressed in transfected cells; host or cells: SK-RC-49 renal carcinoma cells, stably transfected (G418)
Method: A CX3CX3CX3C(C, cysteine; X, any amino acid) library was prepared (Rajotte et al., 1998). […] Cells were detached by incubation with 2.5 mM EDTA in PBS, washed once in binding medium (DMEM high glucose supplemented with 20 mM HEPES and 2% FCS), and resuspended in the same medium at a concentration of 2×10^6 cells/ml. 10^10 TU of phage were added to 500 μl of the cell suspension, and the mixture was incubated overnight (first round) or for 2 h (successive rounds) at 4° C. with gentle rotation. Cells were washed five times in binding medium at room temperature and resuspended in 100 μl of the same medium. Phage were rescued by adding 1 ml of exponentially growing K91Kan Escherichia coli bacteria and incubating the mixture for 1 h at room temperature. Bacteria were diluted in 10 ml of LB medium supplemented with 0.2 μg/ml tetracycline and incubated for another 20 min at room temperature. Serial dilutions were plated on LB plates containing 40 μg/ml tetracycline, and plates were incubated at 37° C. overnight before colonies were counted.
The CX3CX3CX3C phage library (10^10 transducing units [TU]) was preadsorbed on parental SK-RC-49 cells to decrease nonspecific binding. […] SK-RC-49/APA-bound phage were amplified and used for two consecutive rounds of selection.

placenta [3] = test: Validation of placenta homing phage: recovery from placenta of pregnant mice; type: in vivo, mouse; conditions: FIG. 1
Excerpt: FIG. 1. Validation of placenta homing phage. […] The placenta homing phage clones were: […] NO:43). The placenta homing peptides were validated in vivo by injection into pregnant mice and recovery from the placenta. […] The phage clones are identified as: […] NO:43).

mouse placenta = test: In vivo biopanning for placenta homing phage with post-clearing (clone frequency per round); conditions: for frequency of phage clone in round III: round III of in vivo biopanning in pregnant mice; for frequency of phage clone in round IV: post-clearing in non-pregnant mouse
Method: Peptides homing to the mouse placenta were identified by a post-clearing protocol using a phage display library. A first round of biopanning was performed on pregnant mice. Samples of placenta were removed and phage rescued according to the standard protocols described above, with one modification. In the typical bipanning protocol, thousands of phage may be recovered from a single organ, tissue or cell type. Typically, between 200 and 300 individual colonies were selected from plated phage and these were amplified and pooled to form the phage display library for the second or third rounds of biopanning. In this example, all phage rescued from the first round of biopanning were amplified in bulk on solid medium and then pooled to form the phage display library for the second round of biopanning. That is, there was no restriction of the rescued phage from the first round of biopanning. This in vivo biopanning without restriction was performed for three rounds (rounds I-III), then a post-clearing procedure was used.
In the post-clearing protocol (round IV), phage were administered to a non-pregnant mouse. Phage that bound to tissues other than placenta were absorbed from the circulation. Remaining phage were recovered from the plasma of the non-pregnant mouse. This protocol was designed to isolate phage that bound to placenta but not to other mouse organs, tissues or cell types. The following placenta targeting peptides were identified, along with their frequencies. A search of the GenBank database disclosed that none of the SEQ ID NO's listed below was 100% homologous with any known peptide sequence.

APA (SK-RC-49/APA cells) [4] = target: T1, APA (SK-RC-49/APA cells); test: Phage binding specificity assay on SK-RC-49/APA cells; type: cell-based; conditions: input 10^9 TU, not shown
Method: The cell binding assay was performed with an input of 10^9 TU as described for the cell panning. The specificity was confirmed by adding […] (SEQ ID NO:123) peptide to the binding medium in increasing concentrations. For phage binding on immunocaptured APA, wells were blocked for 1 h at room temperature with PBS/3% BSA and incubated with 10^9 TU for 1 h at room temperature in 50 μl PBS/3% BSA. After eight washes in PBS/1% BSA/0.01% Tween-20 and two washes in PBS, phage were rescued by adding 200 μl of exponentially growing K91Kan E. coli. Each experiment was repeated at least three times.

HUVEC = test: Apoptosis by chromatin fragmentation (agarose gel) in HUVEC; type: cell-based, human
Method: 10^6 HUVEC were treated with 15 μM of VISY antennapedia (penetratin) chimera or 15 μM of antennapedia peptide (pentratin) alone for 2-4 hours and chromatin fragmentation was analyzed by electrophoresis in an agarose gel.

GST-β5 integrin = target: T2, GST-β5 integrin (Homo sapiens, UniProt P18084); test: Annexin V binding to GST-β5 cytoplasmic domain (ELISA), competition with VISY peptide; conditions: FIG. 20A
T2 construct: Plates were coated with GST fusion proteins of the cytoplasmic domains of various integrins and Annexin V was added to the plates
T2 sequence (P18084 743-799 limits assumed): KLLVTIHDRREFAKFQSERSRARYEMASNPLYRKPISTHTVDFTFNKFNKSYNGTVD
Method: Competitive binding assays were performed to examine the binding of Annexin V to β5 integrin and the effect of the VISY peptide. Plates were coated with GST fusion proteins of the cytoplasmic domains of various integrins and Annexin V was added to the plates. Binding of Annexin V was determined using anti-Annexin V antibodies. […] Calcium was used because Annexin V activity has been reported to be modulated by calcium. Binding of Annexin V to GST-β5 was blocked by addition of the VISY peptide (FIG. 20A).
A reciprocal study was performed, using Annexin V to coat plates and adding GST fusion proteins of integrin cytoplasmic domains. Binding was assessed using anti-GST fusion protein antibodies. […] In some studies, calcium ion appeared to interfere with the binding interaction between GST-β5 and Annexin V, with decreased binding observed in the presence of calcium (not shown).

adipose tissue = test: Validation of adipose homing phage by in vivo homing; parameters: species or system mouse; conditions: FIG. 2
Method: FIG. 2. Validation of adipose homing peptides. Phage bearing targeting peptides identified in Example 4 were injected into pregnant mice and their recovery from adipose tissue was compared to control fd-tet phage without targeting sequences.
The fat homing clones selected were: FA—KGGRAKD (SEQ ID NO:53), FC—RGEVLWS (SEQ ID NO:54), FE—TREVHRS (SEQ ID NO:47) and FX—VMGSVTG (SEQ ID NO:52).

[5] = FITC conjugates-I, 1 mouse iv (predominantly) or ip ~every other day, day 1-day 18, 9 times, Total 450 μg)
[6] = FITC conjugates-II, 1 mouse sc (predominantly) or iv ~every other day, day 4-day 17, 10 times, Total 1M (~1 mg)

T1 sequence (Q07075 whole entry): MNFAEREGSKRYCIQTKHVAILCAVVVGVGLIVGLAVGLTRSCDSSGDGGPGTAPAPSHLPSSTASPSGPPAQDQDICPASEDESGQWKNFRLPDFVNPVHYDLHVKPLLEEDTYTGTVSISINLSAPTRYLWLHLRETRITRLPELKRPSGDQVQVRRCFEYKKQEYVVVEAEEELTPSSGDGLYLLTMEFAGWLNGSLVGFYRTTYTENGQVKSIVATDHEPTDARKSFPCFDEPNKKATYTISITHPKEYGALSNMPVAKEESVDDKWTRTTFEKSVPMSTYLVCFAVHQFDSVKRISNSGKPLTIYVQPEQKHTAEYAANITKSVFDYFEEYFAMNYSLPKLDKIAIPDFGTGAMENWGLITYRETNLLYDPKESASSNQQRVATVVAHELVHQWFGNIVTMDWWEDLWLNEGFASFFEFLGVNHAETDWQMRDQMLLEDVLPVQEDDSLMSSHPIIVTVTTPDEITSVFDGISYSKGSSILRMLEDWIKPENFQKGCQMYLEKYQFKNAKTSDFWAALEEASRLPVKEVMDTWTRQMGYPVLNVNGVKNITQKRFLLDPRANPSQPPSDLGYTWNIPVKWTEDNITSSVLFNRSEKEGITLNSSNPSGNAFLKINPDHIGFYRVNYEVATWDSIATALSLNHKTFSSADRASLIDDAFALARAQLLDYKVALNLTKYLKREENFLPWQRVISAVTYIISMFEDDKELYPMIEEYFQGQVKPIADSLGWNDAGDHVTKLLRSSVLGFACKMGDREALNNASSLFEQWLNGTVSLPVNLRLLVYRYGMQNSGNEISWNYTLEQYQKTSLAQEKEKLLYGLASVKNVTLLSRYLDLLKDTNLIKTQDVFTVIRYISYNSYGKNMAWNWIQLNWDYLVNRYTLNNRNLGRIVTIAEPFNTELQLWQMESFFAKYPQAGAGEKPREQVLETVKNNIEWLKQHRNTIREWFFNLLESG

## CARAC-FITC: CARAC peptide (SEQ ID NO:46) attached to FITC, non-placental targeting control (cysteine pairing not given here; also: attached to FITC, site not given here) [reference compound]
Placenta [1]; [5]
  Peptide Effect on Embryo: No effect
  Pregnancy Outcome: 18 d, 5 normal pups
Placenta [1]; [6]
  Peptide Effect on Embryo: Slight toxicity?
  Pregnancy Outcome: 20 d, 5 pups, 1-dead

## CSMMCLEGCDDWC
APA (SK-RC-49/APA cells) [2]
  Round 2 (%): 5%

## LGLRSVG [placenta targeting peptide, phage clone PE]
Placenta [3]
  placental homing of phage compared to control fd-tet phage: not substantially enriched in placenta
Mouse placenta
  frequency of phage clone in round III: < 1%
  frequency of phage clone in round IV: 5.3%

## TPKTSVT
Placenta [3]
  placental homing of phage compared to control fd-tet phage: more than an order of magnitude greater
Mouse placenta
  frequency of phage clone in round III: 7.4%
  frequency of phage clone in round IV: 8.5%

## CGTGCAVECEVVC
APA (SK-RC-49/APA cells) [4]
  enrichment of phage binding on SK-RC-49/APA cells relative to SK-RC-49 parental cells: no selective binding
APA (SK-RC-49/APA cells) [2]
  Round 2 (%): 5%

## VVISYSMPD
HUVEC; 15 μM, 2-4 hours, FIG. 21
  induction of apoptosis (chromatin fragmentation): Neither VISY or penetratin alone induced apoptosis
GST-β5 integrin
  effect on binding of Annexin V to GST-β5: blocked

## COC(=O)C[C@H](NC(=O)[C@H](C)NC(=O)[C@@H](NC(=O)OCc1ccccc1)C(C)C)C(=O)CF [zVAD, reference compound] (Cbz-Val-Ala-Asp(OMe)-CH2F)
HUVEC; caspase inhibitor added at the same time as the VISY chimeric peptide
  inhibition of VISY chimeric peptide-induced apoptosis: up to 70%

## YIRPFTL [placenta targeting peptide, phage clone PF]
Placenta [3]
  placental homing of phage compared to control fd-tet phage: not substantially enriched in placenta
Mouse placenta
  frequency of phage clone in round III: 2.1%
  frequency of phage clone in round IV: 5.3%

## RMDGPVR [placenta targeting peptide]
Mouse placenta
  frequency of phage clone in round III: 3.1%
  frequency of phage clone in round IV: 8.5%

## TPKTSVT: placenta targeting peptide, tested displayed on phage clone PA
Placenta [1]
  effect on pregnancy: slight effect on pregnancy
  effect on fetal development: substantially interfered with fetal development

## VGLHARA [placenta targeting peptide]
Mouse placenta
  frequency of phage clone in round III: 4.2%
  frequency of phage clone in round IV: 7.4%

## YIRPFTL: placenta targeting peptide, phage clone PF
Placenta [1]
  effect on pregnancy: slight effect on pregnancy
  effect on fetal development: substantially interfered with fetal development

## CAVACWADCQLGC
APA (SK-RC-49/APA cells) [2]
  Round 2 (%): 5%

## GST-PA: PA peptide (TPKTSVT) attached to GST (glutathion S-transferase)
Placenta [1]; GST conjugates-I, 1 mouse sc (predominantly) or iv ~every other day, day 4-day 17, 10 times, Total 800 μg
  Peptide Effect on Embryo: Pregnancy termination

## TREVHRS [adipose targeting peptide, fat homing phage clone FE]
Adipose tissue
  homing to adipose tissue compared to control fd-tet phage: some elevation of homing to adipose tissue

## PA-FITC: placenta homer PA peptide (TPKTSVT) attached to FITC (fluorescein isothiocyanate) (also: FITC conjugate, site not given here)
Placenta [1]; [5]
  Peptide Effect on Embryo: No effect
  Pregnancy Outcome: 19 d, 8 normal pups
Placenta [1]; [6]
  Peptide Effect on Embryo: Pregnancy termination
  Pregnancy Outcome: No fetuses inside

## CSGLCTVQCLEGC
APA (SK-RC-49/APA cells) [2]
  Round 2 (%): 5%

## VMGSVTG [fat-targeting peptide, fat homing phage clone FX]
Adipose tissue
  homing to adipose tissue compared to control fd-tet phage: several orders of magnitude higher adipose localization

## RGEVLWS [fat-targeting peptide, fat homing phage clone FC]
Adipose tissue
  homing to adipose tissue compared to control fd-tet phage: some elevation of homing to adipose tissue

## KGGRAKD [fat-targeting peptide, fat homing phage clone FA]
Adipose tissue
  homing to adipose tissue compared to control fd-tet phage: some elevation of homing to adipose tissue

## RAPGGVR [placenta targeting peptide, phage clone PC]
Placenta [3]
  placental homing of phage compared to control fd-tet phage: substantially higher placental localization
Mouse placenta
  frequency of phage clone in round III: < 1%
  frequency of phage clone in round IV: 8.5%

## PF-FITC: placenta homer PF peptide (YIRPFTL) attached to FITC (also: FITC conjugate, site not given here)
Placenta [1]; [5]
  Peptide Effect on Embryo: Development delay,; also recorded: toxicity
  Pregnancy Outcome: 21 d, 1 dead pup
Placenta [1]; [6]
  Peptide Effect on Embryo: Pregnancy termination
  Pregnancy Outcome: No fetuses inside
